These are literature values, as cited in patent publication US4127534A, “Novel tripeptides, intermediates therefor and pharmaceutical compositions and methods employing said tripeptides” (priority 1977, dated 1978).

In data set [1] the test system is partially purified brain opiate receptor sites.
For data set [2] the following is noted: injected directly into the brain of the rat.

As to “H-Tyr-Gly-Gly-Phe-Met-OH [methionine enkephalin]”, the “binding to partially purified brain opiate receptor sites” value in data set [1] is reported as “binds stereo-specifically”. Moreover, the analgesic activity result in data set [2] is listed as “only weak analgesic agent of short duration”.
